Columns and labels:
[1] = target: T1, Ba/F3-FGFR1-transfected cells (Homo sapiens, UniProt P11362); assay: Ba/F3-FGFR1 (minus IL3 or plus IL3) cellular proliferation assay; type: cell-based; conditions: 24 hours, Alamar Blue
T1 construct: other: minus IL3; 24 hours, Alamar Blue
Description: Ba/F3-FGFR1 (Minus IL3 or Plus IL3) (Cellular Proliferation Assay)
(§1) In a 384 well plate, 100 nl of compound dilution in DMSO was sprayed before adding 50 μl cell culture medium (phenol red free RPMI-1640, 10% FBS, 2 mM L-Glutamine and 50 μg/ml Gentamycin) containing 20000 cells per well of Ba/F3-FGFR1-transfected cells. Cells were put in an incubator at 37° C. and 5% CO2. After 24 hours, 10 μl of Alamar Blue solution (0.5 mM K3Fe(CN)6, 0.5 mM K4Fe(CN)6, 0.15 mM Resazurin and 100 mM Phosphate Buffer) was added to the wells, incubated for 4 hours at 37° C. and 5% CO2 before RFU's (Relative Fluorescence Units) (ex. 540 nm., em. 590 nm.) were measured in a fluorescence plate reader.
(§2) In this assay, the inhibitory effect of different compound concentrations (range 10 μM to 0.1 nM) was determined and used to calculate an IC50 (M) and pIC50 (−log IC50) value. As a counterscreen the same experiment was performed in the presence of 10 ng/ml murine IL3.

[2] = target: Ba/F3-FGFR4-transfected cells (Homo sapiens, UniProt P22455, cells depend on it, form not given); assay: Ba/F3-FGFR4 cellular proliferation assay; type: cell-based; conditions: 24 hours, Alamar Blue
Description: Ba/F3-FGFR4 (Cellular Proliferation Assay)
as §1, with “Ba/F3-FGFR4-transfected” for “Ba/F3-FGFR1-transfected”
In this assay, the inhibitory effect of different compound concentrations (range 10 μM to 0.1 nM) was determined and used to calculate an IC50 (M) and pIC50 (−log IC50) value.

KDR (h) = KDR (h) (Homo sapiens, UniProt P35968); assay: KDR (VEGFR2) (enzymatic assay), TR-FRET; type: biochemical; conditions: 3 μM ATP; pIC50 = -log IC50 (M); read-out: VEGFR KDR pIC50 (converted)
Description: KDR (VEGFR2) (Enzymatic Assay)
In a final reaction volume of 30 μL, KDR (h) (150 ng/ml) was incubated with 50 mM HEPES pH 7.5, 6 mM MnCl2, 1 mM DTT, 0.1 mM Na3VO4, 0.01% Triton-X-100, 500 nM Btn-Flt3 and 3 μM ATP in the presence of compound (1% DMSO final). After incubation for 120 minutes at room temperature the reaction was stopped with 2.27 nM EU-anti P-Tyr, 7 mM EDTA, 31.25 nM SA-XL-665 and 0.02% BSA which was present for 60 minutes at room temperature. Time-Resolved Fluorescence Resonance Energy Transfer (TR-FRET) signal (ex340 nm. Em 620 nm, em 655 nm) was measured afterwards and results are expressed in RFU (Relative Fluorescence Units). In this assay, the inhibitory effect of different compound concentrations (range 10 μM to 0.1 nM) was determined and used to calculate an IC50 (M) and pIC50 (−log IC50) value.

FGFR1 (h) = FGFR1 (h) (Homo sapiens, UniProt P11362); assay: FGFR1 (enzymatic assay), TR-FRET; type: biochemical
FGFR4 = target: T2, FGFR4 (Homo sapiens, UniProt P22455); assay: Enzyme binding assay (KINOMEscan) FGFR4; conditions: pKd = -log Kd (M), read-out: FGFR4_pKd (converted)
T2 construct: purchased DiscoveRx Corporation
Procedure, shortened: (§3)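 Affinity values come from KINOMEscan enzyme binding measurements carried out externally.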

FGFR3 = target: T3, FGFR3 (Homo sapiens, UniProt P22607); assay: Enzyme binding assay (KINOMEscan) FGFR3; conditions: pKd = -log Kd (M), read-out: FGFR3_pKd (converted)
T3 construct: purchased DiscoveRx Corporation
Procedure, shortened: as §3

FGFR1 = target: T4, FGFR1 (Homo sapiens, UniProt P11362); assay: Enzyme binding assay (KINOMEscan) FGFR1; conditions: FGFR1_pKd, pKd = -log Kd (M)
T4 construct: purchased DiscoveRx Corporation
Procedure, shortened: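 Binding affinities of the compounds for each kinase were measured with the KINOMEscan platform, run as an outsourced service.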

FGFR2 = target: T5, FGFR2 (Homo sapiens, UniProt P21802); assay: Enzyme binding assay (KINOMEscan) FGFR2; conditions: pKd = -log Kd (M), read-out: FGFR2_pKd (converted)
T5 construct: purchased DiscoveRx Corporation
Procedure, shortened: as §3

FGFR2 (h) = FGFR2 (h) (Homo sapiens, UniProt P21802); assay: FGFR2 (enzymatic assay), TR-FRET; type: biochemical; conditions: 0.4 μM ATP; pIC50 = -log IC50 (M); read-out: FGFR 2 pIC50 (converted)
VEGFR2 = target: T6, VEGFR2 (Homo sapiens, UniProt P35968); assay: Enzyme binding assay (KINOMEscan) VEGFR2; conditions: pKd = -log Kd (M), read-out: VEGFR2_pKd (converted)
T6 construct: purchased DiscoveRx Corporation
Procedure, shortened: as §3

FGFR4 (h) = FGFR4 (h) (Homo sapiens, UniProt P22455); assay: FGFR4 (enzymatic assay), TR-FRET; type: biochemical; conditions: 5 μM ATP; pIC50 = -log IC50 (M); read-out: FGFR 4 pIC50 (converted)
[3] = target: T7, Ba/F3-KDR-transfected cells (Homo sapiens, UniProt P35968, cells depend on it, form not given); assay: Ba/F3-KDR (minus IL3 or plus IL3) cellular proliferation assay; type: cell-based; conditions: 24 hours, Alamar Blue
T7 construct: BAF3-KDR (MIN IL3 pIC50); other: minus IL3; 24 hours, Alamar Blue
Description: Ba/F3-KDR (Minus IL3 or Plus IL3) (Cellular Proliferation Assay)
as §1, with “Ba/F3-KDR-transfected” for “Ba/F3-FGFR1-transfected”
as §2

[4] = target: T8, Ba/F3-FGFR3-transfected cells (Homo sapiens, UniProt P22607, cells depend on it, form not given); assay: Ba/F3-FGFR3 (minus IL3 or plus IL3) cellular proliferation assay; type: cell-based; conditions: 24 hours, Alamar Blue
T8 construct: BAF3-FGFR3 (MIN IL3 pIC50); other: minus IL3; 24 hours, Alamar Blue
Description: Ba/F3-FGFR3 (Minus IL3 or Plus IL3) (Cellular Proliferation Assay)
as §1, with “Ba/F3-FGFR3-transfected” for “Ba/F3-FGFR1-transfected”
as §2

FGFR3 (h) = FGFR3 (h) (Homo sapiens, UniProt P22607); assay: FGFR3 (enzymatic assay), TR-FRET; type: biochemical; conditions: 25 μM ATP; pIC50 = -log IC50 (M); read-out: FGFR3 pIC50 (converted)
Chain of FGFR3 (h) (P22607 23-806): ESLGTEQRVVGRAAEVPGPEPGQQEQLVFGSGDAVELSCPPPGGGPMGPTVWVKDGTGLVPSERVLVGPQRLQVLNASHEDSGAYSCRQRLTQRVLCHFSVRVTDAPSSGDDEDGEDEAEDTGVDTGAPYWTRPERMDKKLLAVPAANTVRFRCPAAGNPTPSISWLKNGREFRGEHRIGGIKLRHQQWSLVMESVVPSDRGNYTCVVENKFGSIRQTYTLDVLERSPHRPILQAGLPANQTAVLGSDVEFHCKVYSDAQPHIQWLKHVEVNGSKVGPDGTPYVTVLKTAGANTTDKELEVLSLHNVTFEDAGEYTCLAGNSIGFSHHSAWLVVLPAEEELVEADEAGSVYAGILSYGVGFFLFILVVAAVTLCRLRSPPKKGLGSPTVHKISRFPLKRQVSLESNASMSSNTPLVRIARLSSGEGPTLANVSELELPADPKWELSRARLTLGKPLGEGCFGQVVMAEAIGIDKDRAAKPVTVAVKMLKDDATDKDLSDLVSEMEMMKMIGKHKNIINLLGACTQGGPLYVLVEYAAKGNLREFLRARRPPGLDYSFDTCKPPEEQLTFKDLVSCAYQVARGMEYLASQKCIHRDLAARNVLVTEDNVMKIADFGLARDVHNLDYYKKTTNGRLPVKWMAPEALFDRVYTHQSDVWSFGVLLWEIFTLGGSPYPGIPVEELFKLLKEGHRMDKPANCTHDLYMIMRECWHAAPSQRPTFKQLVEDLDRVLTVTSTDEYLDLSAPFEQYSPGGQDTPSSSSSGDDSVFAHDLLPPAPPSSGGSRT

T3 sequence (P22607 23-806): as above
Chain of FGFR1 (h) (P11362 22-822): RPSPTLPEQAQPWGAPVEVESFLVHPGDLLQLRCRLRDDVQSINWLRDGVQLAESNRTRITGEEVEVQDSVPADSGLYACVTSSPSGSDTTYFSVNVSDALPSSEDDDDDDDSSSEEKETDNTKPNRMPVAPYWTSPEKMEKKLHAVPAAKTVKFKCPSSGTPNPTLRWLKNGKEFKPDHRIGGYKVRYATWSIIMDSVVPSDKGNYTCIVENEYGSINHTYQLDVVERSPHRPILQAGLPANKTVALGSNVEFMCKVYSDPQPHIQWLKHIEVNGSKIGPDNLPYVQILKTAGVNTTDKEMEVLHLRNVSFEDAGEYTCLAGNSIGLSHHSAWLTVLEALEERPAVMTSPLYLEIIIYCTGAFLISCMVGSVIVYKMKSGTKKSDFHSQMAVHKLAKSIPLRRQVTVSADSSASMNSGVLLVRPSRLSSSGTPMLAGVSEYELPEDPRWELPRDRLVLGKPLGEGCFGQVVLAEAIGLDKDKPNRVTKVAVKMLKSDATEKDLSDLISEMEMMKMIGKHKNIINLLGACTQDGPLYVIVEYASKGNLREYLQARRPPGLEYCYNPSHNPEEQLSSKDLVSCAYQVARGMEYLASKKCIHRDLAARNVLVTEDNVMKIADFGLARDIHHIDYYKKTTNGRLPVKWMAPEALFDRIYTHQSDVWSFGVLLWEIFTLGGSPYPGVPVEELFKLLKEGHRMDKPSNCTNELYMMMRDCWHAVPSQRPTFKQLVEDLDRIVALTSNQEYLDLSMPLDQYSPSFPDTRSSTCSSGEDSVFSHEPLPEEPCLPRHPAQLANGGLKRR
T4 sequence (P11362 22-822): as above
T5 sequence (P21802 22-821): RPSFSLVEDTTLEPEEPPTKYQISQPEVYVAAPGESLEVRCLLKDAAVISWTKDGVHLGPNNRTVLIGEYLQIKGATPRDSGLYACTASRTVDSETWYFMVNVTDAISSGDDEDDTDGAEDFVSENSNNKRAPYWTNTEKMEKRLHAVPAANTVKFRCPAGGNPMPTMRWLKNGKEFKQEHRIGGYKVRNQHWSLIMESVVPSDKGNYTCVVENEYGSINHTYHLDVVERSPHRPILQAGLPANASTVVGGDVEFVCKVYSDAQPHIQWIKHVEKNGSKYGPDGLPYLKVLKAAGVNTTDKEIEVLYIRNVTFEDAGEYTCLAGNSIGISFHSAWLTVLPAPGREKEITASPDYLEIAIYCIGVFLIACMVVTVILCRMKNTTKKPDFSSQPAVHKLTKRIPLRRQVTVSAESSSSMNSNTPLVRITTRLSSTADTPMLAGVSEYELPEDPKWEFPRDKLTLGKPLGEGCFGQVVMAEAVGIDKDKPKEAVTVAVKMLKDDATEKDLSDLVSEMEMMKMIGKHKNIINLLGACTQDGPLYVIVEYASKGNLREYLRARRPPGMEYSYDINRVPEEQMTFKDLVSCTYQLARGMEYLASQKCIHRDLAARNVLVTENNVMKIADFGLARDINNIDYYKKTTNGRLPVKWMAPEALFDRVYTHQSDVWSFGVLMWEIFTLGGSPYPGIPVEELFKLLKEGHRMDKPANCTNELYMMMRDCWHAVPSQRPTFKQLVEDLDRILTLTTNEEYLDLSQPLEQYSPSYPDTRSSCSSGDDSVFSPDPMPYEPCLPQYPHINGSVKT
Chain of FGFR2 (h) (P21802 22-821): as above
T6 sequence (P35968 20-1356): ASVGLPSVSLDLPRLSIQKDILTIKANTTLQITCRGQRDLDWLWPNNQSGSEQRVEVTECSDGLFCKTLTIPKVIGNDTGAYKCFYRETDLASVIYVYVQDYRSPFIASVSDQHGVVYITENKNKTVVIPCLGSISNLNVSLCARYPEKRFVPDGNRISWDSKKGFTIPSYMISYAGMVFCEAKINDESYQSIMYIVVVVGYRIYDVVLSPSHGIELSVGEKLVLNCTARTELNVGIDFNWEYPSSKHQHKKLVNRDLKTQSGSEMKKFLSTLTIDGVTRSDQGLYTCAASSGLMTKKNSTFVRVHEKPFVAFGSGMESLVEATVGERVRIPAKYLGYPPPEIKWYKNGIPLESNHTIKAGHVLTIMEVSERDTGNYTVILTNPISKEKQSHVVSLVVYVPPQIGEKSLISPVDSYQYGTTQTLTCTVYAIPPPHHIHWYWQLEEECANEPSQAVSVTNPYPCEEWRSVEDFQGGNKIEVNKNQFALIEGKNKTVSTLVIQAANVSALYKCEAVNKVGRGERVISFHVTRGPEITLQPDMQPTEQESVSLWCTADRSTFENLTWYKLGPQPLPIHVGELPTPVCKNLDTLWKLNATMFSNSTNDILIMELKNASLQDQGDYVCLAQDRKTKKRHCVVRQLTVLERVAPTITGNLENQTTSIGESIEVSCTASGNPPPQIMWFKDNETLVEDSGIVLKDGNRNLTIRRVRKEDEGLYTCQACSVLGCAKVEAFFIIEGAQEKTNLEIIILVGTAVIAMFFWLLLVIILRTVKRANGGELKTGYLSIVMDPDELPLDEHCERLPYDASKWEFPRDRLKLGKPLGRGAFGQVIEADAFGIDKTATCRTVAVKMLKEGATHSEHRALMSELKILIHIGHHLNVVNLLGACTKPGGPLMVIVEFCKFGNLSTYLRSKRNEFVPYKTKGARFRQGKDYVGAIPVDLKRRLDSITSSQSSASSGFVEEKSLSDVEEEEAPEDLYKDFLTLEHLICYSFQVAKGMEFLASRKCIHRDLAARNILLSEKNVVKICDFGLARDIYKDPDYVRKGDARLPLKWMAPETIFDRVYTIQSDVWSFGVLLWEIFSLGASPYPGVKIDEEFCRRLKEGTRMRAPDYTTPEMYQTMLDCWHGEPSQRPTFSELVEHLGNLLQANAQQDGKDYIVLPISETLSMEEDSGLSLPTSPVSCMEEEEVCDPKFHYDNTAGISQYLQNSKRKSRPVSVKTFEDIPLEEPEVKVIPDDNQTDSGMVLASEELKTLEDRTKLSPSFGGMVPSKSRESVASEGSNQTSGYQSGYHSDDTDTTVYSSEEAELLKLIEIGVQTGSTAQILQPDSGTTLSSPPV
Chain of KDR (h) (P35968 20-1356): as above
T2 sequence (P22455 22-802): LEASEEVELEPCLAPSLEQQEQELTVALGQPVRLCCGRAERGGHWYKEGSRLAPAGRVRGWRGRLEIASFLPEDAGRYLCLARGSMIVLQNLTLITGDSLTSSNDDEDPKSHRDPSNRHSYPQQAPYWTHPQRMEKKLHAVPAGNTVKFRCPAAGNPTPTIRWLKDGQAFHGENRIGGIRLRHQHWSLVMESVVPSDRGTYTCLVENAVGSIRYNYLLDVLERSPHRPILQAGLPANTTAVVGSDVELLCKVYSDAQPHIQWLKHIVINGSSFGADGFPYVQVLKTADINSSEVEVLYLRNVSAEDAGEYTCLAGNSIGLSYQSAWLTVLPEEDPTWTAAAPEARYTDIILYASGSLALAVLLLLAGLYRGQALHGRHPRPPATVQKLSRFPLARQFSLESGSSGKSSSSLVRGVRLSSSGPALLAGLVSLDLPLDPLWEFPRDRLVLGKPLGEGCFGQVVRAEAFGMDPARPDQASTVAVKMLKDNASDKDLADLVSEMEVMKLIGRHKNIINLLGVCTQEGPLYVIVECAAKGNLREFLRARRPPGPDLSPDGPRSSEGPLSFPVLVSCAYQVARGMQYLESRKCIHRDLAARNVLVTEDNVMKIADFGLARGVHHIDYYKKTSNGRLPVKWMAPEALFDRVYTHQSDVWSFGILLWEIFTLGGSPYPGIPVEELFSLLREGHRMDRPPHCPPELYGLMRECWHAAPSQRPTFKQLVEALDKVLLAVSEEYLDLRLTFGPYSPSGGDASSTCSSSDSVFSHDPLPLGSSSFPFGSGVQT
Chain of FGFR4 (h) (P22455 22-802): as above

Structure (SMILES): COc1cc(OC)c(F)c(N(CCNC(C)C)c2ccc3ncn(-c4cnn(C)c4)c(=O)c3c2)c1F [Compound 19]
- BAF3-FGFR1 (MIN IL3 pIC50) [1]: 8.8
- BAF3-FGFR4 (pIC50) [2]: 8.2
- IC50 (KDR (h)): 1.26e-07 M
- IC50 (FGFR1 (h)): 5.01 nM
- melting point: 162 °C
- Kd (FGFR4): 5.01e-09 M
- Kd (FGFR3): 5.01e-09 M
- Kd (FGFR1): 1.58e-09 M
- Kd (FGFR2): 5.01e-09 M
- IC50 (FGFR2 (h)): 1.58e-08 M
- Kd (VEGFR2): 1.58e-08 M
- IC50 (FGFR4 (h)): 2e-08 M
- BAF3-KDR (MIN IL3 pIC50) [3]: 6.2
- BAF3-FGFR3 (MIN IL3 pIC50) [4]: 8.6
- IC50 (FGFR3 (h)): 1.58e-08 M

— patent US9493426B2, “Quinazolinone derivatives useful as FGFR kinase modulators” (priority 2013, dated 2016)
